From patent US20230382940A1, “ANTIVIRAL COMPOUNDS AND METHODS OF MAKING AND USING THE SAME” (Gilead Sciences, Inc., priority 2022, published 2023)

Legend:
[1] = tested on: Respiratory syncytial virus recombinant with luciferase (RSV-Luc5); assay: HEp-2 RSV-Luc5 384-well assay (EC50 RSVFLUC Hep2-384 v2), Example V; type: cell-based; details: human respiratory syncytial virus, HEp-2, 72 h, read-out: EC50 RSV FLuc Hep-2 384 V2 (per Ex. V)
Source text: Example V: HEp-2 RSV-Luc5 384-Well Assay (EC50 RSVFLUC Hep2-384 v2)
HEp-2 cell line was purchased from ATCC (Manassas, VA Cat #CCL-23) and maintained in Dulbecco's […] (DMEM) (Corning, New York, NY, Cat #15-018CM) supplemented with 10% fetal bovine serum (FBS) (Hyclone, Logan, UT, Cat #SH30071-03) and 1× Penicillin-Streptomycin-L-Glutamine (Corning, New York, NY, Cat #30-009-C1). Cells were passaged 2 times per week to maintain sub-confluent densities and were used for experiments at passage 5-20. Respiratory syncytial virus recombinant with luciferase (RSV-Luc5) (≥1×107 TCID50/ml) was purchased from Microbiologics (Saint Cloud, MN). Viral replication was determined in HEp-2 cells in the following manner.
Compounds are prepared in 100% DMSO in 384-well polypropylene plates (Greiner, Monroe, NC, Cat #784201) with 8 compounds per plate in grouped replicates of 4 at 10 serially diluted concentrations (1:3). The serially diluted compounds were transferred to low dead volume Echo plates (Labcyte, Sunnyvale, CA, Cat #LP-0200).
The test compounds were spotted to 384-well assay plates (Greiner, Monroe, NC, Cat #781091) at 200 nL per well. HEp-2 cells were harvested and suspended in DMEM (supplemented with 10% FBS and 1× Penicillin-Streptomycin-L-Glutamine) and seeded to the pre-spotted assay plates at 4,000 cells per well in 30 μL. RSV-Luc5 viruses were diluted in DMEM (supplemented with 10% FBS and 1× Penicillin-Streptomycin-L-(Glutamine) at 200,000 Infectious Units (IU) per mL and 10 μL per well was added to the assay plates containing cells and compounds, for an MOI=0.5. The assay plates were incubated for 3 days at 37° C. and 5% CO2. At the end of incubation, One-Glo reagent (Promega, Madison, WI, Cat #E6120) was prepared. The assay plates and One-Glo reagent were equilibrated to room temperature for at least 15 minutes. 40 μL per well of One-Glo reagent was added and the plates were incubated at room temp for 15 minutes before reading the luminescence signal on an EnVision multimode plate reader (Perkin Elmer, Waltham, MA). Remdesivir was used as positive control and DMSO was used as negative control. Values were normalized to the positive and negative controls (as 0% and 100% replication, respectively) and data was fitted using non-linear regression analysis by Gilead's dose response tool. The EC50 value for each compound was then determined as the concentration reducing the viral replication by 50%.

[2] = GI S9 stability, dog, Example Y; type: in vitro ADME; details: dog intestinal S9, 1.0 mg/mL protein, 2 μM compound, pH 7.4; for half-life at 2 μM: pooled intestinal S9 fractions, read-out: GIS9 DOG T½ (per Ex. Y)
Method: (§1) Example Y: GI S9 Stability Data
(§2) Stock solutions of test compounds in dimethyl sulfoxide (DMSO) having a final concentration of 10 mM were prepared and used in all experiments. Sekisui XenoTech (Kansas City, KS) provided pooled intestinal S9 fractions. All other chemicals were purchased from Sigma-Aldrich (St. Louis, MO) or VWR (West Chester, PA). Internal Standard/Quench (IS/Q) used to stop reactions was 100 nM labetalol in (by volume) methanol (10%) and acetonitrile (90%).
(§3) Stability in Intestinal S9 Fractions: Duplicate aliquots of test compound or positive control substrate were added to S9 stock diluted with phosphate buffered saline (137 mM NaCl, 2.7 mM KCl, 10 mM phosphate buffer), pH 7.4, to obtain a protein concentration of 1.0 mg/mL. The metabolic reactions were initiated by the addition of the substrates to the S9 reaction mixture to a final concentration of 2 μM. At 0, 10, 20, 30, 60 and 120 min, 25 μL aliquots of the reaction mixture were transferred to plates containing 225 μl of IS/Q solution. After quenching, the plates were centrifuged at 3000×g for 30 minutes. 150 μL aliquots of each supernatant were dried down then reconstituted with 300 μL water. Aliquots (10 μL) of the prepared samples were analyzed on a Thermo Q-Exactive mass spectrometer as described below.
(§4) Liquid Chromatography—Mass Spectrometry: Quantification of test compounds and control substrate was performed by analyte/internal standard peak area ratio (PAR) values measured on a Thermo Q-Exactive mass spectrometer coupled to a Dionex UltiMate 3000 HPLC with a Leap Technologies HTC PAL autosampler. The column used for analysis was a Waters Acquity BEH C18 (1.7 μm particle size, 2.1×50 mm). Mobile phase A consisted of 0.1% (v/v) formic acid in water. Mobile phase B consisted of 0.1% (v/v) formic acid in acetonitrile. Elution of analytes was achieved by a series of linear gradients varying the proportions of A and B. The mass spectrometer was calibrated on a weekly basis and mass tolerance of 5 ppm was used.
(§5) Metabolic stabilities in S9 fractions were determined by measuring the rates of disappearance of test compound and positive control substrate.
(§6) Data (% of substrate remaining) were plotted on a semi-log scale and fitted using an exponential decline model:
(§7) Ct=C0×e^−ln2/T1/2×t • Where Ct—% of substrate remaining at time=t; C0—% of substrate remaining at time=0; t—time; T1/2—half-life. • The Half-life (T1/2) is determined by the following equation: […]
(§8) Assuming a first-order reaction, the slope (k) is extrapolated from the aforementioned plotted data.

[3] = GI S9 stability, cyno, Example Y; type: in vitro ADME; details: cynomolgus monkey, pooled intestinal S9 fractions; cyno intestinal S9, 1.0 mg/mL protein, 2 μM compound, pH 7.4; read-out: GIS9 Cyno T½ (per Ex. Y)
Method: as §1, §2, §3, §4, §5, §6, §7, §8

Compound | EC50 [1] [µM] | GIS9 DOG T½ (per Ex. Y) [2] [min] | half-life at 2 μM [3] [min] | half-life at 2 μM [2] [min]
CC(C)OC(=O)OC[C@@]1(C#N)O[C@@H](c2ccc3c(N)ncnn23)[C@H](O)[C@@H]1O [Compound 11, ((2R,3S,4R,5S)-5-(4-aminopyrrolo[2,1-f][1,2,4]triazin-7-yl)-2-cyano-3,4-dihydroxytetrahydrofuran-2-yl)methyl isopropyl carbonate] | 31.2 | 789 | 35 | 
N#C[C@]1(COC(=O)O[C@H]2CCOC2)O[C@@H](c2ccc3c(N)ncnn23)[C@H](O)[C@@H]1O [Compound 33, ((2R,3S,4R,5S)-5-(4-aminopyrrolo[2,1-f][1,2,4]triazin-7-yl)-2-cyano-3,4-dihydroxytetrahydrofuran-2-yl)methyl ((S)-tetrahydrofuran-3-yl) carbonate] | 25.1 | 789 | 163 | 
CC(C)(C)OC(=O)OC[C@@]1(C#N)O[C@@H](c2ccc3c(N)ncnn23)[C@H](O)[C@@H]1O [Compound 13, ((2R,3S,4R,5S)-5-(4-aminopyrrolo[2,1-f][1,2,4]triazin-7-yl)-2-cyano-3,4-dihydroxytetrahydrofuran-2-yl)methyl tert-butyl carbonate] | 12.1 |  | 72 | 96
CCC(CC)OC(=O)OC[C@@]1(C#N)O[C@@H](c2ccc3c(N)ncnn23)[C@H](O)[C@@H]1O [Compound 14, ((2R,3S,4R,5S)-5-(4-aminopyrrolo[2,1-f][1,2,4]triazin-7-yl)-2-cyano-3,4-dihydroxytetrahydrofuran-2-yl)methyl pentan-3-yl carbonate] | 31.6 |  | 8 | 534
COC(=O)OC[C@@]1(C#N)O[C@@H](c2ccc3c(N)ncnn23)[C@H](O)[C@@H]1O [Compound 6, ((2R,3S,4R,5S)-5-(4-aminopyrrolo[2,1-f][1,2,4]triazin-7-yl)-2-cyano-3,4-dihydroxytetrahydrofuran-2-yl)methyl methyl carbonate] | 17.8 | 789 | 38 | 
CCCOC(=O)OC[C@@]1(C#N)O[C@@H](c2ccc3c(N)ncnn23)[C@H](O)[C@@H]1O [Compound 9, ((2R,3S,4R,5S)-5-(4-aminopyrrolo[2,1-f][1,2,4]triazin-7-yl)-2-cyano-3,4-dihydroxytetrahydrofuran-2-yl)methyl propyl carbonate] | 13.3 |  | 19 | 156
CC[C@H](C)OC(=O)OC[C@@]1(C#N)O[C@@H](c2ccc3c(N)ncnn23)[C@H](O)[C@@H]1O [Compound 4, ((2R,3S,4R,5S)-5-(4-aminopyrrolo[2,1-f][1,2,4]triazin-7-yl)-2-cyano-3,4-dihydroxytetrahydrofuran-2-yl)methyl ((S)-sec-butyl) carbonate] | 24.1 |  | 22 | 462
CC[C@@H](C)OC(=O)OC[C@@]1(C#N)O[C@@H](c2ccc3c(N)ncnn23)[C@H](O)[C@@H]1O [Compound 10, ((2R,3S,4R,5S)-5-(4-aminopyrrolo[2,1-f][1,2,4]triazin-7-yl)-2-cyano-3,4-dihydroxytetrahydrofuran-2-yl)methyl ((R)-sec-butyl) carbonate] | 24.7 | 789 | 9 | 
CC(C)COC(=O)OC[C@@]1(C#N)O[C@@H](c2ccc3c(N)ncnn23)[C@H](O)[C@@H]1O [Compound 8, ((2R,3S,4R,5S)-5-(4-aminopyrrolo[2,1-f][1,2,4]triazin-7-yl)-2-cyano-3,4-dihydroxytetrahydrofuran-2-yl)methyl isobutyl carbonate] | 11.5 |  | 8 | 311
N#C[C@]1(COC(=O)OC2CCOCC2)O[C@@H](c2ccc3c(N)ncnn23)[C@H](O)[C@@H]1O [Compound 12, ((2R,3S,4R,5S)-5-(4-aminopyrrolo[2,1-f][1,2,4]triazin-7-yl)-2-cyano-3,4-dihydroxytetrahydrofuran-2-yl)methyl (tetrahydro-2H-pyran-4-yl) carbonate] | > 50 |  | 274 | 
N#C[C@]1(COC(=O)O[C@@H]2CCOC2)O[C@@H](c2ccc3c(N)ncnn23)[C@H](O)[C@@H]1O [Compound 24, ((2R,3S,4R,5S)-5-(4-aminopyrrolo[2,1-f][1,2,4]triazin-7-yl)-2-cyano-3,4-dihydroxytetrahydrofuran-2-yl)methyl ((R)-tetrahydrofuran-3-yl) carbonate] | 29.5 | 789 | 147 | 
CC(C)COC(=O)OC[C@@]1(C#N)O[C@@H](c2ccc3c(N)ncnn23)[C@@H]2OC(=O)O[C@@H]21 [Compound 15, ((3aS,4R,6S,6aS)-6-(4-aminopyrrolo[2,1-f][1,2,4]triazin-7-yl)-4-cyano-2-oxotetrahydrofuro[3,4-d][1,3]dioxol-4-yl)methyl isobutyl carbonate] | 14.4 |  | 2 | 12
CC(C)(C)COC(=O)OC[C@@]1(C#N)O[C@@H](c2ccc3c(N)ncnn23)[C@H](O)[C@@H]1O [Compound 2, ((2R,3S,4R,5S)-5-(4-aminopyrrolo[2,1-f][1,2,4]triazin-7-yl)-2-cyano-3,4-dihydroxytetrahydrofuran-2-yl)methyl neopentyl carbonate] | 9.49 |  | 4 | 162
N#C[C@]1(COC(=O)OC2CCCC2)O[C@@H](c2ccc3c(N)ncnn23)[C@H](O)[C@@H]1O [Compound 1, ((2R,3S,4R,5S)-5-(4-aminopyrrolo[2,1-f][1,2,4]triazin-7-yl)-2-cyano-3,4-dihydroxytetrahydrofuran-2-yl)methyl cyclopentyl carbonate] | 21.2 |  | 11 | 256
